Results from ChEMBL document CHEMBL1201862, “PubChem BioAssay data set” (2004).
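Step 1: Grow cells in 96-well plates. Step 2: Expose to compound for 48 hours at 5 concentrations. Step 3: Interpolate endpoints linearly; if unreached, use highest concentration. GI50 = concentration required for 50% inhibition of growth.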 Active and inactive are the calls of the source. No stated cut-off is given here; in the data, active = GI50 up to about 1.1 µM and inactive = higher.

Experiments:
Test in all cases: NCI anticancer screen, dose series, 48 h
Malme-3M = system: Malme-3M
HCT-15 = system: HCT-15
UACC-257 = system: UACC-257
HT-29 = system: HT-29
OVCAR-4 = system: OVCAR-4
EKVX = system: EKVX
KM12 = system: KM12
OVCAR-8 = system: OVCAR-8
SK-MEL-2 = system: SK-MEL-2
RXF 393 = system: RXF 393
A549 = system: A549
SW-620 = system: SW-620
ACHN = system: ACHN
LOX IMVI = system: LOX IMVI
SF-268 = system: SF-268
SF-539 = system: SF-539
NCI-H460 = system: NCI-H460
HOP-92 = system: HOP-92

Measured: GI50

CC1(C)OC2OC(/C=C/[N+](=O)[O-])C3OC(C)(C)OC3C2O1 (configuration not stated)
2.25 µM: HCT-15
inactive: Malme-3M 5.35 µM | UACC-257 7.52 µM | HT-29 17.2 µM | OVCAR-4 16.3 µM | EKVX 20.1 µM | KM12 17.2 µM | OVCAR-8 8.47 µM | SK-MEL-2 18.2 µM | RXF 393 1.99 µM | A549 20.3 µM | SW-620 3.27 µM | ACHN 15.4 µM | LOX IMVI 7.5 µM | SF-268 19.8 µM | SF-539 13.6 µM | NCI-H460 15.4 µM | HOP-92 8.43 µM

COc1cccc(N2C(=O)c3c(c4[nH]c5ccccc5c4c4ccc(C(C)(C)C)cc34)C2=O)c1
inactive: Malme-3M > 100 µM | UACC-257 > 100 µM | OVCAR-4 > 100 µM | EKVX > 100 µM | KM12 > 100 µM | OVCAR-8 > 100 µM | SK-MEL-2 > 100 µM | RXF 393 > 100 µM | A549 > 100 µM | SW-620 > 100 µM | ACHN > 100 µM | LOX IMVI > 100 µM | SF-268 > 100 µM | SF-539 > 100 µM | NCI-H460 > 100 µM | HOP-92 > 100 µM
> 100 µM: HCT-15

CCN(CC)C(=O)CCn1cc(F)c(=O)[nH]c1=O
inactive: Malme-3M > 100 µM | HT-29 > 100 µM | OVCAR-4 > 100 µM | EKVX > 100 µM | KM12 > 100 µM | OVCAR-8 > 100 µM | SK-MEL-2 > 100 µM | RXF 393 > 100 µM | A549 > 100 µM | SW-620 > 100 µM | ACHN > 100 µM | LOX IMVI > 100 µM | SF-268 > 100 µM | SF-539 > 100 µM | NCI-H460 > 100 µM
> 100 µM: HCT-15

CCOC(=O)C1N(S(=O)(=O)c2ccc(C)cc2)CCC12C(c1ccc(OC)c(OC)c1)=Nc1ccccc12 (configuration not stated)
inactive: Malme-3M > 100 µM | UACC-257 > 100 µM | HT-29 > 100 µM | OVCAR-4 > 100 µM | EKVX > 100 µM | KM12 > 100 µM | OVCAR-8 > 100 µM | RXF 393 49.3 µM | A549 > 100 µM | SW-620 > 100 µM | ACHN > 100 µM | LOX IMVI > 100 µM | SF-268 47.8 µM | SF-539 > 100 µM | NCI-H460 > 100 µM | HOP-92 28.5 µM

OCC(O)C(OC1OC(CO)C(O)C(O)C1O)c1nn(-c2ccccc2)c2nc3cc(Cl)c(Cl)cc3cc12 (configuration not stated)
inactive: Malme-3M > 100 µM | UACC-257 > 100 µM | HT-29 > 100 µM | OVCAR-4 > 100 µM | EKVX > 100 µM | KM12 45 µM | OVCAR-8 > 100 µM | RXF 393 > 100 µM | ACHN > 100 µM | LOX IMVI > 100 µM | SF-268 > 100 µM | SF-539 > 100 µM | NCI-H460 > 100 µM
> 100 µM: HCT-15

COc1ccc(Nc2nc3c(N)cc(C(F)(F)F)cc3nc2-c2ccccc2)cc1OC
inactive: Malme-3M 16.4 µM | UACC-257 27.2 µM | OVCAR-4 11.9 µM | EKVX 18.5 µM | KM12 29.3 µM | OVCAR-8 15.1 µM | SK-MEL-2 22 µM | RXF 393 25.7 µM | A549 22 µM | SW-620 57.4 µM | ACHN 12.8 µM | LOX IMVI 40.6 µM | SF-268 16.5 µM | SF-539 18.2 µM | NCI-H460 27.3 µM | HOP-92 20.5 µM
33.4 µM: HCT-15

COc1ccc(C(=O)O)c(Cc2ccc3ccccc3c2)c1
inactive: Malme-3M > 100 µM | UACC-257 > 100 µM | HT-29 > 100 µM | OVCAR-4 > 100 µM | EKVX > 100 µM | KM12 > 100 µM | OVCAR-8 > 100 µM | SK-MEL-2 > 100 µM | RXF 393 > 100 µM | A549 > 100 µM | SW-620 > 100 µM | ACHN > 100 µM | LOX IMVI > 100 µM | SF-268 > 100 µM | SF-539 > 100 µM | NCI-H460 > 100 µM | HOP-92 > 100 µM

CC1(c2cccc3c2C2(O)C=CC4(CCC32)OCCO4)OCCO1 (configuration not stated)
> 100 µM: HCT-15
inactive: Malme-3M > 100 µM | UACC-257 > 100 µM | HT-29 > 100 µM | OVCAR-4 > 100 µM | EKVX > 100 µM | KM12 > 100 µM | OVCAR-8 > 100 µM | SK-MEL-2 > 100 µM | RXF 393 > 100 µM | A549 > 100 µM | SW-620 > 100 µM | ACHN > 100 µM | LOX IMVI > 100 µM | SF-268 > 100 µM | SF-539 > 100 µM | NCI-H460 > 100 µM

CCN(CC)CCN(C)CC(C)(C)C(=O)/C=C/c1ccccc1
inactive: Malme-3M 13.4 µM | UACC-257 11.7 µM | HT-29 11.2 µM | OVCAR-4 11.4 µM | EKVX 13.1 µM | KM12 12.1 µM | OVCAR-8 15.8 µM | SK-MEL-2 11.7 µM | A549 16.4 µM | SW-620 11.5 µM | ACHN 12.6 µM | LOX IMVI 11 µM | SF-268 12.6 µM | SF-539 5.01 µM | NCI-H460 5.68 µM | HOP-92 3.99 µM
12.5 µM: HCT-15

COC(=O)C(=O)C(C(=O)C(=O)Nc1cc(Cl)c(Cl)cc1Cl)c1nc2ccc([N+](=O)[O-])cc2nc1O (configuration not stated)
> 100 µM: HCT-15
inactive: Malme-3M > 100 µM | UACC-257 > 100 µM | OVCAR-4 > 100 µM | EKVX 48.5 µM | KM12 > 100 µM | OVCAR-8 > 100 µM | SK-MEL-2 > 100 µM | RXF 393 > 100 µM | A549 > 100 µM | SW-620 > 100 µM | ACHN > 100 µM | LOX IMVI > 100 µM | SF-268 > 100 µM | SF-539 > 100 µM

NNC(=S)N/N=C/C(=C/Nc1ccccc1)[N+](=O)[O-]
inactive: Malme-3M > 100 µM | UACC-257 > 100 µM | HT-29 > 100 µM | OVCAR-4 > 100 µM | EKVX > 100 µM | OVCAR-8 > 100 µM | SK-MEL-2 > 100 µM | RXF 393 > 100 µM | A549 > 100 µM | SW-620 > 100 µM | ACHN > 100 µM | LOX IMVI > 100 µM | SF-268 > 100 µM | SF-539 > 100 µM | HOP-92 > 100 µM

O=c1c2cc(Br)ccc2nc(-c2ccccc2)n1NCC1(O)OCC(O)C(O)C1O (configuration not stated)
> 100 µM: HCT-15
inactive: Malme-3M > 100 µM | UACC-257 > 100 µM | HT-29 > 100 µM | OVCAR-4 61.8 µM | EKVX > 100 µM | KM12 > 100 µM | OVCAR-8 > 100 µM | SK-MEL-2 > 100 µM | RXF 393 > 100 µM | A549 > 100 µM | SW-620 > 100 µM | ACHN > 100 µM | LOX IMVI > 100 µM | SF-268 > 100 µM | SF-539 > 100 µM | NCI-H460 > 100 µM

Cc1ccc(-c2cc(-c3ccccc3)c(C#N)c(=O)n2C2OC(CO)C(O)C(O)C2O)cc1 (configuration not stated)
inactive: Malme-3M > 100 µM | UACC-257 > 100 µM | HT-29 > 100 µM | OVCAR-4 > 100 µM | EKVX > 100 µM | KM12 > 100 µM | OVCAR-8 > 100 µM | RXF 393 > 100 µM | A549 > 100 µM | SW-620 > 100 µM | ACHN > 100 µM | LOX IMVI > 100 µM | SF-268 > 100 µM | SF-539 > 100 µM | NCI-H460 > 100 µM | HOP-92 > 100 µM
> 100 µM: HCT-15

CCOC(=O)C1(C)CCC(C(C(=O)O)C(=O)O)CC1=O (configuration not stated)
inactive: Malme-3M > 100 µM | UACC-257 > 100 µM | HT-29 > 100 µM | OVCAR-4 > 100 µM | EKVX > 100 µM | KM12 > 100 µM | OVCAR-8 > 100 µM | RXF 393 > 100 µM | A549 > 100 µM | SW-620 > 100 µM | ACHN > 100 µM | LOX IMVI > 100 µM | SF-268 > 100 µM | SF-539 > 100 µM | NCI-H460 > 100 µM | HOP-92 > 100 µM
> 100 µM: HCT-15

COc1c(C)c2c(c3c1c(=O)c1ccccc1n3C)C=CC(C)(C)O2
18.2 µM: HCT-15
inactive: Malme-3M 25.8 µM | UACC-257 28.9 µM | HT-29 14 µM | EKVX 47.1 µM | KM12 17.9 µM | OVCAR-8 25.6 µM | SK-MEL-2 25 µM | RXF 393 51.5 µM | A549 5.41 µM | SW-620 38 µM | ACHN 20.6 µM | LOX IMVI 15.2 µM | SF-268 26.4 µM | SF-539 19.3 µM | NCI-H460 18.7 µM | HOP-92 31.9 µM

CNC(=S)NC(=S)N(C)C
inactive: UACC-257 > 100 µM | OVCAR-4 > 100 µM | EKVX > 100 µM | OVCAR-8 4.94 µM | RXF 393 > 100 µM | A549 7.67 µM | SW-620 2.96 µM | ACHN > 100 µM | LOX IMVI 4.95 µM | SF-268 > 100 µM | SF-539 > 100 µM | NCI-H460 2.71 µM | HOP-92 > 100 µM
> 100 µM: HCT-15

COC(=O)[C@]1(C)CCC[C@]2(C)C3CC4OOC3(C=C4C(C)(C)O)CCC21 (some centres not stated)
inactive: Malme-3M > 100 µM | UACC-257 80.5 µM | HT-29 22.6 µM | OVCAR-4 72.9 µM | EKVX 75.2 µM | KM12 42.7 µM | OVCAR-8 34.6 µM | SK-MEL-2 > 100 µM | A549 38.4 µM | SW-620 36.1 µM | ACHN 47.8 µM | LOX IMVI 36.8 µM | SF-268 60.1 µM | SF-539 > 100 µM | NCI-H460 33.5 µM
37.8 µM: HCT-15
